Row | melting point [°C] | SMILES
1 | 121 to 122 | COc1ccc(C(=O)NCCCSc2ccncc2)cc1
2 | 90 | CC(C)(C)N1CC(COc2cccc3c2SCCC3)OC1=O (stereo not given)
3 | 207 to 210 | N#Cc1ccc2c(c1)Sc1ccc(Cl)cc1C=C2
4 | 162 to 164 | Nc1nc2ccc(Cc3ccc(F)cc3)cc2s1
5 | > 250 | COc1cc2c(Nc3ccc(Br)cc3F)ncnc2cc1OCCCS(C)(=O)=O
6 | 86 to 88 | Cc1c(Br)c(C(F)(F)F)nn1C(C)C(=O)N(C)C (stereo not given)
7 | 161 to 162 | CN(CCCc1cc(F)c2ncc(C(=O)NCc3ccc(Cl)cc3)c(O)c2c1)Cc1ccccc1
8 | 193 to 195 | CN1C(=O)CCC2(C)c3ccc(-c4cccs4)cc3CCC12 (stereo not given)
9 | 179 to 182 | Cc1ccn2ncc(C(=O)Nc3cc(Cl)ccc3OC3CCC(O)CC3)c2n1 (stereo not given)
10 | 174 to 175 | O=C1c2ccccc2C(=O)N1OCc1nc(=O)c(O)c[nH]1
11 | 117 to 118 | CCOC(=O)c1cn(C)nc1OCc1ccc(OCc2nc(-c3ccco3)oc2C)c(OC)c1
12 | 188 | C=CCOC(=O)C1=C(C)Nc2nc(N)nc(N)c2C1c1cccc([N+](=O)[O-])c1 (stereo not given)
13 | 200 to 203 | Cc1[nH]c(Cl)c(C)c1-c1ccnc(Nc2ccc(F)cc2)n1
14 | 204 | N#Cc1cnn2c(C(F)(F)F)cc(-c3ccc(F)c(C(F)(F)F)c3)nc12
15 | 144 to 145 | CC(=O)ON=Cc1cccc2c1C=Cc1ccccc1S2
16 | 77 | C=CCOCCCCOc1ccc2c(c1)Cc1cc(C(C)=O)ccc1-2
17 | 266 to 267 | NC(=O)c1cccc2[nH]c(-c3ccc(O)cc3)nc12
18 | 104 to 105 | CS(=O)c1ccc(-c2cc(C#N)nn2-c2ccc(F)cc2)cc1 (stereo not given)
19 | 110 to 129 | COC(=O)c1ccc(Cc2cccc3ccc(CC(C)C(=O)O)cc23)c(OC)c1 (stereo not given)
20 | 148 to 151 | COc1cc2c(Nc3ccc(Oc4ccccc4)cc3)c(C#N)cnc2cc1OCCCl
21 | 154 to 155 | O=C(O)c1ccccc1COC1CCn2c(CCc3ccccc3)nc3cccc1c32 (stereo not given)
22 | 114 to 115 | CC(C)(Cl)C(CO)=NO
23 | 141 to 143 | O=C(SCCC(=O)N1C(c2cccs2)SC[C@H]1C(=O)O)c1ccccc1 (stereo not given in full)
24 | 91 to 92 | CC(C)(C)NC(=O)c1ccccc1Cc1ccccc1

Row | melting point [°C] | SMILES
25 | > 250 | CC(C)(C)C(=O)Nc1nc(O)c2cc(C#Cc3ccc(C(=O)O)cc3)cnc2n1
26 | 107 to 108 | CNC(=O)[C@@H](N[C@@H](C)c1ccccc1)C(C)(C)C
27 | 308 to 312 | CC(C)n1c(S)nc(-c2ccc(F)cc2)c1-c1ccc(F)cc1
28 | 201 to 203 | CC[C@H]1c2ccc(C#N)n2-c2cc(F)c(F)cc2N1S(=O)(=O)c1ccc(O)c(C)c1
29 | 137 to 138 | CC(C)n1nc(-c2c(-c3ccccc3)nn3cccc(OCCN(C)C)c23)ccc1=O
30 | 83 | Clc1ncnc2ccccc12
31 | 132 to 134 | CC(C)N(CCC12CC3CC(CC(C3)C1)C2)C(=O)NCCCc1ccncc1
32 | 132 to 134 | NC(=O)N(O)Cc1sccc1Oc1ccccc1
33 | 108 to 112 | CCCc1c(OCCCCCC(=O)c2c(C)c(C)c(OC)c(OC)c2C)ccc(C(=O)O)c1O
34 | 165 to 166 | Cc1cccc(C)c1N1CC(C)N(c2c(C)cccc2C)C1=NC(=O)Oc1ccccc1 (stereo not given)
35 | 134 to 138 | O=C(O)c1cn(C2CC2)c2c(F)c(N3CCC(CNCCF)C3)c(F)cc2c1=O (stereo not given)
36 | 165 to 166 | CC(C)(C)OC(=O)Nc1ccc(-c2noc(COc3ccc(F)c(C(N)=O)c3F)n2)cc1
37 | 81.8 to 83.3 | COC(=O)C(Br)c1ccc(S(C)(=O)=O)cc1 (stereo not given)
38 | 75 to 80 | OCC1OC(n2cnc3c(NCC(c4ccc(F)cc4)c4ccc(F)cc4)ncnc32)C(O)C1O (stereo not given)
39 | 44 to 45 | CCCCCCCCCCCCCCCCOc1ccc(-c2nc(CC(=O)OCC)c(OCC)o2)cc1
40 | 39 to 40 | CCCCCCCCCCCCCCC[C@@H](O)C(Cl)C(=O)OC (stereo not given in full)
41 | 265 to 266 | O=c1[nH]ccc2cc3cccnc3n12
42 | 98 to 102 | CCCCCCCCOc1cc2cc(CO)c(CO)c(-c3ccnc(NN)c3)c2cc1OC
43 | 206 to 208 | COc1cc(OC)c(-c2cc3ccccc3[nH]2)cc1C=CC(=O)c1ccc(S(=O)(=O)Nc2ccccn2)cc1
44 | 220 to 221 | COC1=NS(=O)(=O)N(C)C(Oc2ccc([N+](=O)[O-])cc2)=N1
45 | > 300 | CC(C)(C)C(=O)c1c[nH]c2ncc(-c3ccc(C(=O)NC4CCCC4)s3)nc12
46 | 104 | CCCC(=O)NN=C(C)c1ccncc1Cl
47 | 153 to 154 | CCOC(=O)c1nc(-c2ccccc2)c(-c2ccc(=O)n(C(C)C)n2)s1
48 | 194 | Cc1nc(-c2ccc(S(C)(=O)=O)cc2)c(-c2ccc(-c3cscn3)cc2)s1

Row | melting point [°C] | SMILES
49 | 110 to 112 | COC(=O)COc1c(Cl)cc(Cl)c(C#N)c1Cl
50 | 140 to 144 | CCCOc1ccc(S(=O)(=O)NCCc2c[nH]cn2)cc1-c1nc2cc(Cl)c([N+](=O)[O-])cc2c(=O)[nH]1
51 | 96 to 98 | COC(=O)c1cccc(OCc2c(Cl)cccc2Cl)c1
52 | 70 to 72 | CCOCCOc1ccc2c(c1)C(CNS(=O)(=O)CC)CC(C)(C)O2 (stereo not given)
53 | 172 | COC(=O)C(C)(N)Cc1c[nH]c2ccc(OCC3CC3)cc12 (racemic)
54 | 180 to 182 | CC(=O)n1ncc2cc(C)c([N+](=O)[O-])cc21
55 | 200 | O=C1NC(CC(=O)C2CC2)c2cccn2-c2sccc21 (stereo not given)
56 | 207 | O=c1[nH]c2ccccc2c(=O)cc1NCCO
57 | 305 to 307 | CN1CCN(c2cc(C(=O)Nc3ccc4c(c3)-c3c(c(C(N)=O)nn3-c3ccc5c(c3)OCO5)CC4)c(Cl)cn2)CC1
58 | 212 to 215 | CCC(C)(C)c1ccc(Oc2cc(NC(=O)Nc3ccc(C#N)cc3)c(O)cc2[N+](=O)[O-])c(C(C)(C)CC)c1
59 | 219 to 220 | CCCNC(=O)Nc1cc(-c2c(-c3ccc(F)cc3)nc3cccnn23)ccn1
60 | 97 to 99 | Cc1nn(C)c(NC=O)c1C1=CCC(C)CC1 (stereo not given)
61 | 81 to 83 | COc1ccc2[nH]c3c(c2c1)C(C(=O)OCc1ccccc1)CCC3 (stereo not given)
62 | 198 to 199 | CCOc1nc2cccc(C(=O)OC)c2n1Cc1ccc(-c2ccccc2C(N)=O)cc1
63 | > 285 | Cn1c(=O)c(=O)[nH]c2ccc3c(c21)CCCN3
64 | 309 | Nc1nnc(-c2cc(F)c(F)c(F)c2O)s1
65 | 133 to 134 | COc1ccc(CNc2cccc3nc(-c4cccc(Cl)c4)oc23)cc1OC1CCCC1
66 | 163 to 164 | Clc1ccc2c(c1)c(-c1ccccc1)c1n2CCNC1
67 | 158 to 159 | COC(=O)C(=C\c1ccc(OC2CCCC2)c(OC)c1)/C(=C\c1ccccc1)C(N)=O
68 | 255 to 256 | O=C(Nc1cc(Cl)cc(Cl)c1)c1cccc(Cl)c1O
69 | 140 to 142 | O=C(O)C(O)c1ccccc1Nc1c(Cl)cccc1Cl (stereo not given)
70 | 100 to 101 | N#CCCN1CCC(c2[nH]cc3cc(F)ccc23)CC1
71 | 231 to 232 | CNC(=O)c1cc(-c2ccc(OC)cc2)nn(CC(=O)Nc2ccc(SC)cc2)c1=O
72 | 73 to 75 | COC(=O)Cc1ccccc1NS(C)(=O)=O

Row | melting point [°C] | SMILES
73 | 84 to 85 | CCCCc1nc(C(=O)CC)c(C#N)[nH]1
74 | > 300 | O=c1[nH]c2cc(C(F)(F)F)c(-n3ccnc3)cc2n2c(=S)[nH]nc12
75 | 75 to 78 | O=c1ccoc2cc(OCCCCCl)ccc12
76 | 133 to 134 | Oc1c2c(nn1-c1ccccn1)CCc1cc(-c3ccccc3)ccc1-2
77 | 90 to 125 | O=C(O)CCC(CC=Cc1ccccc1Cl)(C(=O)C=Cc1ccc(Cl)cc1)c1ccccc1 (stereo not given)
78 | 214 to 216 | CC(C)(Oc1ccc(N)cc1)C(=O)O
79 | 241 to 246 | CCNC(=O)Nc1ncc(-c2ccncc2)cn1
80 | 152 to 155 | CC1=C(CO)C(C)(C)CCC1=NO
81 | 80 to 82 | [N-]=[N+]=Nc1ccc(S(=O)(=O)NCCc2ccc(CCO)cc2)cc1
82 | 136 to 137 | CCC(C(=O)NC)n1nnc2ccccc21 (stereo not given)
83 | 173 to 175 | CCn1ncc(-c2ccc3c(c2)c(C2CCN(CCN4CCNC4=O)CC2)cn3-c2ccc(F)cc2)n1
84 | 62 | O=Cc1cccc2cc(C(=O)OCc3ccccc3)[nH]c12
85 | 122 to 124 | CCN1C(=O)CCc2cc(S(=O)(=O)c3cccc([C@@]4(O)CCO[C@@H](C)C4)c3)ccc21
86 | 67.8 | Cc1cc(C)cc(C(=O)N2CCC(N3CCC(NCCc4ccccc4)CC3)CC2Cc2ccccc2)c1 (stereo not given)
87 | 81 to 83 | CCCCCc1c(C(C)C)nc(C(C)C)c(CO)c1-c1ccccc1C
88 | 75 to 78 | CCCC(Oc1ccc(Cl)c(C)c1)C(=O)NCc1ccccc1 (stereo not given)
89 | 178 | Cc1c(N)nc(=S)n(C)c1N
90 | 210 to 213 | CCOC(=O)c1nc(NC)sc1-c1cn2ccc(C)cc2n1
91 | 269 to 271 | Oc1cc(CBr)c2oc(-c3ccc(O)c(F)c3)cc2c1
92 | 130 to 133 | CCN(CC)CCOc1ccc(-c2oc3ccccc3c2C(=O)c2cc(C)c(OC)c(C)c2)cc1
93 | 267 to 268 | CCCCc1cc(C#N)ncc1C(=O)O
94 | 127 to 129 | CC1CCN(C(=O)C(Cc2cc3c(N)nccc3s2)NS(=O)(=O)c2ccc(OC3CCOCC3)cc2)CC1 (stereo not given)
95 | 152 to 154 | O=C1Nc2ccccc2N(C(=O)N2CCCC(CCN3CCCCCC3)C2)c2ncccc21 (stereo not given)

Row | SMILES | melting point [°C]
96 | COc1cc2c(c(OC)c1OC)-c1ccc(NC(=O)C(C)NC(=O)OCc3ccccc3)cc1C(NC(C)=O)CC2 (stereo not given) | 140 to 141
97 | C=C(C)c1c(OCC)cc(Cc2cnc(N)nc2N)cc1OCC | 196 to 198
98 | O=C(Nc1cnc2[nH]ccc2c1)c1cc2cc(F)ccc2n1Cc1cccc(F)c1 | 266 to 267
99 | COC(=O)C1C(c2ccc(Br)cc2)CC2CCC1N2C (stereo not given) | 114 to 116
100 | C=CC[C@H](C(N)=O)[C@@H](CC(C)C)C(=O)NC1N=C(c2ccccc2)c2cc(OC)ccc2N(C)C1=O (stereo not given in full) | 244 to 255

Reference: a melting point compilation (Tetko et al.; mined from patent text by program, amines drawn as free bases though some values may be those of a salt)
